# From patent EP4748841A1, “BICYCLO[5,6] IMIDAZOLE PYRIMIDONE DERIVATIVE AND PREPARATION METHOD THEREFOR AND USE THEREOF” (Shujing Biopharma Co., Ltd, priority 2023, dated 2025)
# Assays:
# Assay type in all cases: in vitro ADME
# [1] = Liver microsome stability experiment (cynomolgus monkey); details: pH 7.4, Cynomolgus monkey liver microsomes, 0.5 mg/mL; for CLint scaled at 1 µM: cynomolgus monkey, liver microsomes
# Protocol: (§1) This experiment aimed to evaluate the phase I metabolic stability of the compounds of the present disclosure in liver microsomes of SD rats, beagle dogs, cynomolgus monkeys, and humans.
# (§2) • (1) Buffer preparation: 73.21 g of dipotassium hydrogen phosphate trihydrate and 10.78 g of potassium dihydrogen phosphate were dissolved in 4000 mL of ultrapure water. The pH of the solution was adjusted to within 7.40 ± 0.10 using 10% phosphoric acid or 1 M potassium hydroxide, resulting in a final concentration of 100 mM. • (2) Solution preparation and dilution: Stock solutions of the test compounds at a concentration of 10 mM were prepared in dimethyl sulfoxide (DMSO) and stored at 4 °C, and they were diluted into 100 µM working solutions with pure acetonitrile when used. A stock solution of the control compound testosterone at a concentration of 10 mM was prepared in DMSO and stored at -20 °C, and it was diluted into a 400 µM working solution with pure acetonitrile when used. • (3) Termination solution preparation: The termination solution was an acetonitrile solution containing an internal standard (terfenadine). The prepared termination solution was stored in a refrigerator at 2-8 °C. • (4) Liver microsome solution preparation: Liver microsomes from various species (SD rat, beagle dog, cynomolgus monkey, and human) were diluted into 20× working solutions using 100 mM potassium phosphate buffer. The final concentration of the liver microsomes in the reaction system was 0.5 mg/mL. • (5) Reduced nicotinamide adenine dinucleotide phosphate (NADPH) regeneration system preparation: Appropriate amounts of nicotinamide adenine dinucleotide phosphate (NADP), glucose-6-phosphate (G6P), magnesium chloride (MgCl2), and glucose-6-phosphate dehydrogenase (G6PDH) were weighed to prepare stock solutions at concentrations of 65.33 mM, 330 mM, 300 mM, and 250 Units/mL, respectively. The four stock solutions described above were each added to an appropriate amount of buffer, and the mixture was mixed well by gently inverting up and down. The final concentrations of NADP, G6P, MgCl2, and G6PDH in the NADPH regeneration system were 2.65 mM, 10.2 mM, 6.12 mM, and 2.45 Units/mL, respectively. • (6) Incubation process: The incubation was completed in 96-well plates. Several incubation plates were prepared and named T0, T5, T10, T20, T40, T60, and NCF60, respectively. The first 6 plates corresponded to reaction time points of 0 min, 5 min, 10 min, 20 min, 40 min, and 60 min, respectively. The NCF60 plate was incubated for 60 min with potassium phosphate buffer replacing the NADPH regeneration system solution. Samples under all conditions were prepared in triplicate.
# (§3) 2 µL of the test compound or control compound and 100 µL of microsome working solution (containing 1 mg/mL liver microsome protein) were added to each of the T0, T5, T10, T20, T40, T60, and NCF60 plates, and only the microsome working solution was added to the Blank 60 plate. The plates described above were then pre-incubated in a 37 °C water bath for about 10 min.
# (§4) After the pre-incubation was completed, 98 µL of the NADPH regeneration system working solution was added to each sample well except for the NCF60 plate and the T0 plate to initiate the reaction, and 98 µL of potassium phosphate buffer was added to each well of the NCF60 plate. Therefore, for the sample wells containing the test sample or control substance working solution, the final concentrations of TC and testosterone in the reaction were 1 µM and 4 µM, respectively, the concentration of liver microsomes was 0.5 mg/mL, and the final concentrations of DMSO and acetonitrile in the reaction system were 0.01% (v/v) and 0.99% (v/v), respectively.
# (§5) After incubation for an appropriate time (e.g., 5 min, 10 min, 20 min, 40 min, and 60 min), 600 µL of a termination solution (an acetonitrile solution containing 100 ng/mL […]) was added to each test compound sample well and control compound sample well to terminate the reaction. […]
# [2] = Liver microsome stability experiment (human); details: for CLint scaled at 1 µM: human, liver microsomes, pH 7.4, Human liver microsomes; for half-life at 1 µM: pH 7.4, Human liver microsomes
# Protocol: as §1, §2, §3, §4, §5
# [3] = Liver microsome stability experiment (SD rat); details: for CLint scaled at 1 µM: SD, rat, liver microsomes, pH 7.4, SD rat liver microsomes; for half-life at 1 µM: pH 7.4, SD rat liver microsomes
# Protocol: as §1, §2, §3, §4, §5
# [4] = 0.5 mg/mL, 1 µM, read-out: CL(liver)
# [5] = 0.5 mg/mL, 1 µM, read-out: CLint(liver)
# [6] = read-out: Clearance rate classification
SMILES,CLint scaled at 1 µM ([1]; read-out: CL(liver)) [mL/min/kg],CLint scaled at 1 µM ([1]; read-out: CLint(liver)) [mL/min/kg],half-life at 1 µM [1] [h],"CLint scaled at 1 µM [2, 4] [mL/min/kg]","CLint scaled at 1 µM [2, 5] [mL/min/kg]","CLint scaled at 1 µM [2, 6] [mL/min/kg]","half-life at 1 µM ([2]; 0.5 mg/mL, 1 µM) [h]","CLint scaled at 1 µM [3, 4] [mL/min/kg]","CLint scaled at 1 µM [3, 5] [mL/min/kg]","CLint scaled at 1 µM [3, 6] [mL/min/kg]","half-life at 1 µM ([3]; 0.5 mg/mL, 1 µM) [h]"
"O=c1nc(OCc2cc(F)c(Oc3ccnc(C(F)(F)F)c3)c(F)c2)cc2n1C[C@H]1CCCN21 [Comparative Example 1, reference compound]",28.3,81,0.385,6.9,10.3,8.9 to 48.3,2.01,18.9,28.7,23.7 to 129,1.45
O=c1nc(OCc2cc(F)c(Oc3ccnc(C(F)(F)F)c3)c(F)c2)cc2n1C[C@H]1CCN21 [Example 34-R],< 8.2,< 10,> 3.11,< 5.06,< 6.69,≤ 8.9,> 3.11,< 10.8,< 13.4,≤ 23.7,> 3.11
